According to the NIST ThermoML archive (doi:10.1021/je900550v):

Experiment: refractive index (Na D-line) (dimensionless)
Settings: 101.33 kPa, Liquid, Standard Abbe refractometry

CC(=O)[O-].C[NH2+]CCO [N-methyl-2-hydroxyethylammonium acetate]
Settings	refractive index
288.25 K	1.4518
293.23 K	1.4506
298.15 K	1.4494
303.13 K	1.4483
308.13 K	1.447
313.05 K	1.4457
318.13 K	1.4445
323.1 K	1.4433

CCCCC(=O)[O-].C[NH2+]CCO [2-hydroxy-N-methylethanaminium pentanoate]
Settings	refractive index
288.15 K	1.4568
293.12 K	1.4554
298.19 K	1.4538
303.15 K	1.4524
308.18 K	1.4508
313.25 K	1.4492
318.15 K	1.4474
323.18 K	1.4461

C[NH2+]CCO.O=C[O-] [2-hydroxy-N-methylethanaminium formate]
Settings	refractive index
288.35 K	1.4485
293.15 K	1.447
298.35 K	1.4458
303.15 K	1.4446
308.23 K	1.4429
313.1 K	1.4418
318.15 K	1.4406
322.85 K	1.4396

CCCC(=O)[O-].C[NH2+]CCO [N-methyl-2-hydroxyethylammonium butanoate]
Settings	refractive index
288.15 K	1.4579
293.15 K	1.4564
298.15 K	1.4549
303.15 K	1.4534
308.15 K	1.452
313.15 K	1.4504
318.15 K	1.4488
323.15 K	1.4471

CCC(=O)[O-].C[NH2+]CCO [2-hydroxy-N-methylethanaminium propionate]
Settings	refractive index
288.15 K	1.4561
293.2 K	1.4548
298.2 K	1.4534
303.15 K	1.452
308.15 K	1.4507
313.18 K	1.4492
318.15 K	1.4478
323.15 K	1.4464

CC(C)C(=O)[O-].C[NH2+]CCO [2-hydroxy-N-methylethanaminium isobutyrate]
Settings	refractive index
288.11 K	1.4539
293.15 K	1.4525
298.05 K	1.4511
303.05 K	1.4496
308.05 K	1.4481
313.05 K	1.4463
318.08 K	1.4448
323.15 K	1.4433
